Values of other authors, collected in paper PMC11946513, “Modulation of the substrate preference of a MYST acetyltransferase by a scaffold protein” (The Journal of Biological Chemistry, 2025).

Biological target: KAT6A MYST domain
Settings: binding to the KAT6A MYST domain; acetyl-CoA competitive; read-out: inhibition constant (Ki)
Protocol: The active enzyme concentration for each form of KAT6A was obtained through tight-binding inhibition ([48]) by PF-9363, which binds to the KAT6A MYST domain with an inhibition constant (Ki) of ≈0.3 nM ([6]).

COc1cccc(OC)c1S(=O)(=O)Nc1noc2cc(Cn3cccn3)cc(OC)c12 [PF-9363]
Ki: ~0.3 nM
